From patent US10815264B2, “Nucleotides for the treatment of cancer” (IDENIX PHARMACEUTICALS LLC, priority 2015, dated 2020)
pIC50: −log10 of the molar value. Like-named read-outs stand apart in the source and are kept apart here.

Legend:
Experiment in all cases: In vitro inhibition, CellTiter-Glo (CTG) assay, 72 hr exposure
Format in all cases: cell-based
PANC-1 = details: PANC-1, 72 hr
Protocol: (§1) Cells were grown in RPMI-1640 supplemented with L-Glutamine and 10% FBS of the following cell lines:
(§2) CCRF-CEM; CCRF-CEM-cytarabine resistant; HL-60; K562; CFPAC-1; MiaPACA-2; BxPC-3; PANC-1; HepG2; MDA-MB-231; HCT-116; A498; and NCI-H69
(§3) 18, 96 well plates of each cell line were seeded with the optimized number of cells per well in a total volume of 50 μL per well. The plates were left overnight. Plate wells were seeded with 100 μL media for media control. The following day, cells were exposed to test compounds as described below. At the same time as drug exposure, a CTG assay was conducted on the 18th plate for the 0 hr count.
(§4) The compounds were added to cells and medium already on the plate to give desired final concentrations. 50 μL media were added to cell control wells, and 50 μL of mix added to vehicle control wells. 10 μM Doxorubicin was added to appropriate wells. Cells exposed to test compound were incubated at 37° C. for 72 hr followed by a CTG assay.
(§5) At the end of the 72 hr exposure period, plates were removed for a CellTiter-Glo (CTG) assay from a 37° C., 5% CO2 incubator and placed on the bench at room temperature for 30 mins. 100 μL of CellTiter-Glo reagent was added and mixed for 2 mins, followed by a further 10 min incubation at room temperature. Luminescence was recorded using Synergy 4.0.

A498 = system: A498
Protocol: as §1, §2, §3, §4, §5

MDA-MB-231 = details: MDA-MB-231, 72 hr
Protocol: as §1, §2, §3, §4, §5

CFPAC-1 = system: CFPAC-1
Protocol: as §1, §2, §3, §4, §5

[1] = system: CCRF-CEM-cytarabine resistant
Protocol: as §1, §2, §3, §4, §5

MiaPACA-2 = system: MiaPACA-2
Protocol: as §1, §2, §3, §4, §5

BxPC-3 = system: BxPC-3
Protocol: as §1, §2, §3, §4, §5

HL-60 = system: HL-60
Protocol: as §1, §2, §3, §4, §5

NCI-H69 = system: NCI-H69
Protocol: as §1, §2, §3, §4, §5

HCT-116 = system: HCT-116
Protocol: as §1, §2, §3, §4, §5

HepG2 = system: HepG2
Protocol: as §1, §2, §3, §4, §5

K562 = details: K562, 72 hr
Protocol: as §1, §2, §3, §4, §5

CCRF-CEM = system: CCRF-CEM
Protocol: as §1, §2, §3, §4, §5

Row | Compound | pIC50 (PANC-1) | pIC50 (A498; A498, 72 hr) | pIC50 (MDA-MB-231) | pIC50 (CFPAC-1; CFPAC-1, 72 hr) | pIC50 [1] | pIC50 (MiaPACA-2; MiaPACA-2, 72 hr) | pIC50 (BxPC-3; BxPC-3, 72 hr) | pIC50 (HL-60; HL-60, 72 hr) | pIC50 (NCI-H69; NCI-H69, 72 hr) | pIC50 (HCT-116; HCT-116, 72 hr) | pIC50 (HepG2; HepG2, 72 hr) | pIC50 (K562) | pIC50 (CCRF-CEM) | pIC50 (PANC-1; Homo sapiens) | pIC50 (MDA-MB-231; Homo sapiens) | further results
1 | CC(C)(C)SSCCOP(=O)(NCc1ccccc1)OC[C@H]1S[C@@H](n2ccc(N)nc2=O)[C@@H](O)[C@@H]1O (single isomer, unassigned) [Compound 105 (diastereoisomer 2)] | 4.00 to 5.00 | 4.00 to 5.00 | 4.00 to 5.00 | 4.00 to 5.00 | 4.00 to 5.00 | 5.00 to 6.00 | 4.00 to 5.00 | 4.00 to 5.00 | 4.00 to 5.00 | 4.00 to 5.00 | 4.00 to 5.00 | 4.00 to 5.00 | 4.00 to 5.00 |  |  | 
2 | Nc1ccn([C@@H]2S[C@H](COP(=O)(NCc3ccccc3)OCc3ccc([N+](=O)[O-])o3)[C@@H](O)[C@@H]2O)c(=O)n1 (single isomer, unassigned) [Compound 103 (diastereoisomer 2)] | 4.00 to 5.00 | 5.00 to 6.00 | 4.00 to 5.00 | 5.00 to 6.00 | 5.00 to 6.00 | 5.00 to 6.00 | 5.00 to 6.00 | > 6.00 | 5.00 to 6.00 | 5.00 to 6.00 | 5.00 to 6.00 | 5.00 to 6.00 | > 6.00 |  |  | 
3 | COC(=O)COP(=O)(N[C@@H](CC(C)C)C(=O)OC)OC[C@H]1S[C@@H](n2ccc(N)nc2=O)[C@@H](O)[C@@H]1O (single isomer, unassigned) [Compound 104b (diastereoisomer 2)] | 4.00 to 5.00 | 4.00 to 5.00 | 4.00 to 5.00 | 4.00 to 5.00 | 4.00 to 5.00 | 4.00 to 5.00 | 4.00 to 5.00 | > 6.00 | 4.00 to 5.00 | 4.00 to 5.00 | 4.00 to 5.00 | 4.00 to 5.00 | > 6.00 |  |  | 
4 | Nc1ccn([C@@H]2S[C@H](COP(=O)(O)NCc3ccccc3)[C@@H](O)[C@@H]2O)c(=O)n1 [Compound 107, [(2R,3S,4S,5R)-5-(4-amino-2-oxo-pyrimidin-1-yl)-3,4-dihydroxy-tetrahydrothiophen-2-yl]methoxy-N-benzyl-phosphonamidic acid] |  |  |  |  | 4.00 to 5.00 |  |  |  |  |  |  |  |  | 4.00 to 5.00 | 4.00 to 5.00 | pIC50 (A498; Homo sapiens, A498, 72 h): 4.00 to 5.00; pIC50 (CFPAC-1; Homo sapiens, CFPAC-1, 72 h): 4.00 to 5.00; pIC50 (MiaPACA-2; Homo sapiens, MIA PaCa-2, MiaPACA-2, 72 hr): 5.00 to 6.00; pIC50 (BxPC-3; Homo sapiens, BXPC-3, 72 h): 4.00 to 5.00; pIC50 (HL-60; Homo sapiens, HL-60, 72 h): 5.00 to 6.00; pIC50 (NCI-H69; Homo sapiens, NCI-H69, 72 h): 4.00 to 5.00; pIC50 (HCT-116; Homo sapiens, HCT-116, 72 h): 4.00 to 5.00; pIC50 (HepG2; Homo sapiens, HepG2, 72 h): 5.00 to 6.00; pIC50 (K562; Homo sapiens): 4.00 to 5.00; pIC50 (CCRF-CEM; Homo sapiens, 72 h): 5.00 to 6.00
5 | CCOC(=O)COP(=O)(N[C@@H](CC(C)C)C(=O)OCC)OC[C@H]1S[C@@H](n2ccc(N)nc2=O)[C@@H](O)[C@@H]1O (single isomer, unassigned) [Compound 102b (diastereoisomer 2)] | 4.00 to 5.00 | 4.00 to 5.00 | 4.00 to 5.00 | 4.00 to 5.00 | 4.00 to 5.00 | 4.00 to 5.00 | 4.00 to 5.00 | 5.00 to 6.00 | 4.00 to 5.00 | 4.00 to 5.00 | 4.00 to 5.00 | 4.00 to 5.00 | > 6.00 |  |  | 
6 | CC(C)OC(=O)[C@H](C)NP(=O)(OC[C@H]1S[C@@H](n2ccc(N)nc2=O)[C@@H](O)[C@@H]1O)Oc1ccccc1 (single isomer, unassigned) [Compound 101b (diastereoisomer 1)] |  |  |  | 4.00 to 5.00 | 4.00 to 5.00 | 4.00 to 5.00 | 4.00 to 5.00 | 5.00 to 6.00 |  | 4.00 to 5.00 | 4.00 to 5.00 | 4.00 to 5.00 | > 6.00 | 4.00 to 5.00 | 4.00 to 5.00 | pIC50 (A498; Homo sapiens, A498, 72 hr): 4.00 to 5.00; pIC50 (NCI-H69; Homo sapiens, NCI-H69, 72 hr): 4.00 to 5.00
